ChEMBL document CHEMBL3627691, “Structure activity relationships of benzyl C-region analogs of 2-(3-fluoro-4-methylsulfonamidophenyl)propanamides as potent TRPV1 antagonists” (Bioorg Med Chem, 2015)
pIC50, pKi: −log10 of the molar value.

How the values were obtained:
[1] = target: T1, Transient receptor potential cation channel subfamily V member 1 (Homo sapiens, UniProt Q8NER1); assay: Antagonist activity at human TRPV1 heterologously expressed in CHO cells assessed as inhibition of capsaicin-induced activation by FLIPR assay; format: cell-based; settings: for pKi: read-out: Ki; for Ki: cho
T1 sequence (Q8NER1 whole entry): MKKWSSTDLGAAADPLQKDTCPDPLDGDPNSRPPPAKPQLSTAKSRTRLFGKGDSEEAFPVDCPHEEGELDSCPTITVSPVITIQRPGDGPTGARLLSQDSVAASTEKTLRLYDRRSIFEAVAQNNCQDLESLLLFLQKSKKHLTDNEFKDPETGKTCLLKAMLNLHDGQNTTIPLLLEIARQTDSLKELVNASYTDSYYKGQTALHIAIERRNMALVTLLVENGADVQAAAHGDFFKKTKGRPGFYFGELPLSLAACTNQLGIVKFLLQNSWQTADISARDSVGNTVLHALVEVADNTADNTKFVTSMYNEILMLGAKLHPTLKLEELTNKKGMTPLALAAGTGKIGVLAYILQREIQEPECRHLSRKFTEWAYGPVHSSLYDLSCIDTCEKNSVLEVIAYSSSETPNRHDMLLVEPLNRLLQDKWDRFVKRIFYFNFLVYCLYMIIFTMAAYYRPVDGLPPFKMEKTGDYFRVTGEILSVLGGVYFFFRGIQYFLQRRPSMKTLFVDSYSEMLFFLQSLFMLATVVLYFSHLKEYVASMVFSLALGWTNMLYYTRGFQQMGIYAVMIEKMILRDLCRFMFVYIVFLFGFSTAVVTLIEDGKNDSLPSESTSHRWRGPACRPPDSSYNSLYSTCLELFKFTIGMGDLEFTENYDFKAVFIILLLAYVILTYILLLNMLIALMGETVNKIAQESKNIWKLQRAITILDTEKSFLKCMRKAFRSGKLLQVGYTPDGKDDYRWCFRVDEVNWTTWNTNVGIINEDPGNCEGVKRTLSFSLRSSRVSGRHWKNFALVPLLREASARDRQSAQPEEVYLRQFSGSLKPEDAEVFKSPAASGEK

[2] = target: T1, Transient receptor potential cation channel subfamily V member 1; assay: Antagonist activity at human TRPV1 heterologously expressed in CHO cells assessed as inhibition of NADA-induced activation by FLIPR assay; format: cell-based
[3] = target: T1, Transient receptor potential cation channel subfamily V member 1; assay: Antagonist activity at human TRPV1 heterologously expressed in CHO cells assessed as inhibition of low pH-induced activation; format: cell-based
[4] = target: T1, Transient receptor potential cation channel subfamily V member 1; assay: Antagonist activity at human TRPV1 heterologously expressed in CHO cells assessed as inhibition of low 45 degC heat -induced activation; format: cell-based
[5] = tested on: Mus musculus; assay: Inhibition of capsaicin-induced hypothermia in mouse at 0.3 mg/kg, po administered 15 mins prior to capsaicin challenge measured 30 mins post capsaicin challenge; format: functional
[6] = tested on: Mus musculus; assay: Inhibition of capsaicin-induced hypothermia in mouse at 3 mg/kg, po administered 15 mins prior to capsaicin challenge measured 30 mins post capsaicin challenge; format: functional
[7] = tested on: Mus musculus; assay: Analgesic activity in Bennett mouse model of neuropathic pain assessed as reduction of CCI-induced cold allodynia at 10 mg/kg, po; format: functional
[8] = tested on: Mus musculus; assay: Inhibition of capsaicin-induced hypothermia in mouse at 0.3 and 3 mg/kg, po administered 15 mins prior to capsaicin challenge measured 30 mins post capsaicin challenge; format: functional, organism-based
[9] = tested on: Mus musculus; assay: Analgesic activity in Bennett mouse model of neuropathic pain assessed as reduction of CCI-induced cold allodynia at 0.0001 to 100 mg/kg, po; format: functional, organism-based
[10] = tested on: Mus musculus; assay: Induction of hyperthermia in mouse at 0.3 and 3 mg/kg, po; settings: in vivo

| Compound | pKi [1] | other results |
| --- | --- | --- |
| CC(C(=O)NCc1ccc(C(F)(F)F)nc1-c1ccc(F)c(Cl)c1)c1ccc(NS(C)(=O)=O)c(F)c1 (stereo not given) | 9.22 | – |
| CC(C(=O)NCc1ccc(C(F)(F)F)cc1SCc1ccccc1Cl)c1ccc(NS(C)(=O)=O)c(F)c1 (stereo not given) | 9.05 | – |
| CC(C(=O)NCc1ccc(C(F)(F)F)cc1N1CCC(Cc2cccc(F)c2)CC1)c1ccc(NS(C)(=O)=O)c(F)c1 (stereo not given) | 9.40 | – |
| CC(C(=O)NCc1ccc(C(F)(F)F)cc1SC1CCCC1)c1ccc(NS(C)(=O)=O)c(F)c1 (stereo not given) | 9.52 | pKi [2]: 10.52; pIC50 [3]: 7.49; pIC50 [4]: 7.43; inhibition in vivo at 0.3 mg/kg [5]: 38%; inhibition in vivo at 3 mg/kg [6]: 80%; MPE [7]: 48%; inhibition [8]: Dose-dependent effect; Activity [9]: Dose-dependent effect; Activity [10]: Non-toxic |
| CC1CCN(c2cc(C(F)(F)F)ccc2CNC(=O)C(C)c2ccc(NS(C)(=O)=O)c(F)c2)CC1 (stereo not given) | 9.05 | – |
| CC(C)CCSc1cc(C(F)(F)F)ccc1CNC(=O)C(C)c1ccc(NS(C)(=O)=O)c(F)c1 (stereo not given) | 8.85 | – |
| C[C@@H](C(=O)NCc1ccc(C(F)(F)F)cc1SC1CCCCC1)c1ccc(NS(C)(=O)=O)c(F)c1 | 7.86 | – |
| CC(C(=O)NCc1ccc(C(F)(F)F)cc1[N+](=O)[O-])c1ccc(NS(C)(=O)=O)c(F)c1 (stereo not given) | – | Ki [1]: Not Active |
| CCCCN(C)c1cc(C(F)(F)F)ccc1CNC(=O)C(C)c1ccc(NS(C)(=O)=O)c(F)c1 (stereo not given) | 8.92 | – |
| CCCCCSc1cc(C(F)(F)F)ccc1CNC(=O)C(C)c1ccc(NS(C)(=O)=O)c(F)c1 (stereo not given) | 8.64 | – |
| CC(C(=O)NCc1ccc(C(F)(F)F)cc1-c1cccc(Cl)c1)c1ccc(NS(C)(=O)=O)c(F)c1 (stereo not given) | 9.00 | – |
| CC(C(=O)NCc1ccc(C(F)(F)F)cc1SCCCO)c1ccc(NS(C)(=O)=O)c(F)c1 (stereo not given) | – | Ki [1]: Not Active |
| CC(C(=O)NCc1ccc(C(F)(F)F)cc1N1CCN(c2cccc(C(F)(F)F)c2)CC1)c1ccc(NS(C)(=O)=O)c(F)c1 (stereo not given) | 8.41 | – |
| CC(C(=O)NCc1ccc(C(F)(F)F)cc1SCc1ccco1)c1ccc(NS(C)(=O)=O)c(F)c1 (stereo not given) | 8.49 | – |
| COc1ccc(CSc2cc(C(F)(F)F)ccc2CNC(=O)C(C)c2ccc(NS(C)(=O)=O)c(F)c2)cc1 (stereo not given) | 8.64 | – |
| CCCCCCc1cc(C(F)(F)F)ccc1CNC(=O)C(C)c1ccc(NS(C)(=O)=O)c(F)c1 (stereo not given) | 9.40 | – |
| C[C@H](C(=O)NCc1ccc(C(F)(F)F)cc1SC1CCCCC1)c1ccc(NS(C)(=O)=O)c(F)c1 | 9.52 | pKi [2]: 10.52; pIC50 [3]: 7.69; pIC50 [4]: 8.14; inhibition in vivo at 3 mg/kg [6]: 57%; Activity [9]: Dose-dependent effect; Activity [10]: Non-toxic |
| CC(C(=O)NCc1ccc(C(F)(F)F)cc1SCc1ccccc1)c1ccc(NS(C)(=O)=O)c(F)c1 (stereo not given) | 9.30 | – |
| CCCOc1cc(C(F)(F)F)ccc1CNC(=O)C(C)c1ccc(NS(C)(=O)=O)c(F)c1 (stereo not given) | 8.70 | – |
| CC(C(=O)NCc1ccc(C(F)(F)F)cc1N1CCC(Cc2ccc(F)cc2)CC1)c1ccc(NS(C)(=O)=O)c(F)c1 (stereo not given) | 9.40 | – |
| CC(C(=O)NCc1ccc(C(F)(F)F)cc1SC1CCCCC1)c1ccc(NS(C)(=O)=O)c(F)c1 (stereo not given) | 9.30 | – |
| CC(C)CCOc1cc(C(F)(F)F)ccc1CNC(=O)C(C)c1ccc(NS(C)(=O)=O)c(F)c1 (stereo not given) | 9.30 | – |
| CC(C(=O)NCc1ccc(C(F)(F)F)cc1OCc1ccc(F)cc1)c1ccc(NS(C)(=O)=O)c(F)c1 (stereo not given) | 9.30 | – |
| CC(C(=O)NCc1ccc(C(F)(F)F)cc1C1CCCCC1)c1ccc(NS(C)(=O)=O)c(F)c1 (stereo not given) | 9.22 | – |
| CC(C(=O)NCc1ccc(C(F)(F)F)cc1-c1ccc(F)c(Cl)c1)c1ccc(NS(C)(=O)=O)c(F)c1 (stereo not given) | 9.22 | – |
| CC(C)COc1cc(C(F)(F)F)ccc1CNC(=O)C(C)c1ccc(NS(C)(=O)=O)c(F)c1 (stereo not given) | 9.10 | – |
| CC(C(=O)NCc1ccc(C(F)(F)F)nc1N1CCC(C(F)(F)F)CC1)c1ccc(NS(C)(=O)=O)c(F)c1 (stereo not given) | 9.40 | – |
| CCCCCCSc1cc(C(F)(F)F)ccc1CNC(=O)C(C)c1ccc(NS(C)(=O)=O)c(F)c1 (stereo not given) | 8.74 | – |
| CCCCSc1cc(C(F)(F)F)ccc1CNC(=O)C(C)c1ccc(NS(C)(=O)=O)c(F)c1 (stereo not given) | 8.72 | – |
| CC(C(=O)NCc1ccc(C(F)(F)F)cc1SCc1ccc(Cl)cc1)c1ccc(NS(C)(=O)=O)c(F)c1 (stereo not given) | 8.96 | – |
